Reference: patent US20160214948A1, “PRODRUGS OF MONOMETHYL FUMARATE (MMF)” (RATIOPHARM GMBH, priority 2013, published 2016)

Test system: MOG35-55-induced experimental autoimmune encephalomyelitis (EAE)
Assay: MOG35-55-induced experimental autoimmune encephalomyelitis (EAE) in C57BL/6 mice
Assay type: in vivo
Conditions: male C57BL/6 mice
Protocol: Assessment and Comparison of the Efficacy of Compounds of the Invention and DMF (Reference) in MOG35-55-Induced Experimental Autoimmune Encephalomyelitis (EAE) in C57BL/6 Mice
male C57BL/6 mice, 12 weeks old; 10 animals per treatment group;
Day 1—subcutaneous injection of MOG35-55, suspended in complete Freund's adjuvans and intraperitoneal injection of pertussis toxin.
Day 3—intraperitoneal injection of pertussis toxin.
Dimethylfumarate and test substances or vehicle only were administered via oral and intravenous route.
For oral administration, test substances were dissolved or suspended in 0.5% hydroxyethylcellulose (dissolved in 50 mM potassium dihydrogenphosphate, pH 5.0). Drug concentration in dose formulations: 11.54 mM;
Dose volume: 10 ml/kg body weight;
Start of treatment: Day 3
For intravenous administration, stock solutions were prepared in DMSO and serially diluted with phosphate buffered saline.
Observations were recorded on day 2, 4, 6, 8, 10, 12, 14 and 16.
Clinical score: grade 0-10; 0 (=no impairments), 1 (normal movement; limp tail: proximal 2/3 of the tail is limp and droopy), 2 (normal movement; whole tail is limp; 3 (wobbly walk; absent righting reflex), 4 (gait ataxia), 5 (milad paraparesis), 6 (moderate paraparesis), 7 (severe paraparesis or paraplegia), 8 (tetraparesis), 9 (moribund), 10 (death).

With `COC(=O)/C=C/C(=O)OCCN1CCSCC1` [Ia] the body weight (FIG. 4) was “substantially maintained” and the clinical score (grade 0-10, FIG. 3, with reference to DMF) was “reduced with reference to DMF”.
